Target: T1, human GPBAR1 receptor (Homo sapiens, UniProt Q8TDU6)
T1 construct: expressed in transfected cells
T1 sequence (Q8TDU6 1-330): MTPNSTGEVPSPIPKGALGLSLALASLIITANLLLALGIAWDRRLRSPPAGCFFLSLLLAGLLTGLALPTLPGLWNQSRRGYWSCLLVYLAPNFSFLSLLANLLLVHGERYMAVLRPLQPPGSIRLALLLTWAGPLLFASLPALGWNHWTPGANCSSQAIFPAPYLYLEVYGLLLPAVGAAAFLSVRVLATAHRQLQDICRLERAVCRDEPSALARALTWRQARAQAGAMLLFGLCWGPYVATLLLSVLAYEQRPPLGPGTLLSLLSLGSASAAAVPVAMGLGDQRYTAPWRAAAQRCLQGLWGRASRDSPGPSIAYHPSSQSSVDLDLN
Assay: functional cAMP assay in CHO-dhfr(minus) cells expressing human GPBAR1 receptors
Format: cell-based
Settings: cAMP increase (TR-FRET) in CHO-dhfr(minus) cells expressing human GPBAR1; compounds incubated 30 min at 30° C.
Description: The final clone was verified by DNA sequence analysis. The plasmid was transfected into CHO cells deficient in dihydrofolate reductase activity (CHO-dhfr-) using Lipofectamine plus (Invitrogen). Clones were isolated in limited dilution conditions and identified by activities in the cAMP assay using lithocholic acid as agonist.
The growth medium was exchanged with Krebs Ringer Bicarbonate buffer with 1 mM IBMX and incubated at 30° C. for 30 mM. Compounds were added to a final assay volume of 100 μl and incubated for 30 min at 30° C. […] The time-resolved energy transfer is measured by a TRF reader (Evotec Technologies GmbH, Hamburg Germany), equipped with a ND:YAG laser as excitation source. The plate is measured twice with the excitation at 355 nm and at the emission with a delay of 100 ns and a gate of 100 ns, total exposure time 10s at 730 (bandwith 30 nm) or 645 nm (bandwith 75 nm), respectively.
EC50 values were determined using Activity Base analysis (ID Business Solution, Limited). […] Specificity for GPBAR1 was tested in non-transfected CHO cells in the same assay as above.

In the case of `CN(C(=O)c1cccnc1Oc1cc(Cl)ccc1Cl)c1ccc(F)cc1F` [Example 66, 2-(2,5-Dichloro-phenoxy)-N-(2,4-difluoro-phenyl)-N-methyl-nicotinamide], the EC50 is reported as 518 nM.
`CC1CCc2ccccc2N1C(=O)c1cccnc1Oc1cc(Cl)ccc1Cl` (stereo not shown) [Example 67, [2-(2,5-Dichloro-phenoxy)-pyridin-3-yl]-(2-methyl-3,4-dihydro-2H-quinolin-1-yl)-methanone] showed an EC50 of 1690 nM.
Work on `Cc1cc(F)c2c(c1)CCCN2C(=O)c1cccnc1Oc1cc(Cl)ccc1Cl` [Example 68, [2-(2,5-Dichloro-phenoxy)-pyridin-3-yl]-(8-fluoro-6-methyl-3,4-dihydro-2H-quinolin-1-yl)-methanone] yielded an EC50 of 837 nM.
In the case of `Cc1ccnc(Cl)c1N(C)C(=O)c1cccnc1Oc1cc(Cl)ccc1Cl` [Example 69, N-(2-Chloro-4-methyl-pyridin-3-yl)-2-(2,5-dichloro-phenoxy)-N-methyl-nicotinamide], the EC50 is reported as 566 nM.
Work on `COc1cccc2c1N(C(=O)c1cccnc1Oc1cc(Cl)ccc1Cl)CCC2` [Example 70, [2-(2,5-Dichloro-phenoxy)-pyridin-3-yl]-(8-methoxy-3,4-dihydro-2H-quinolin-1-yl)-methanone] yielded an EC50 of 561 nM.
`O=C(c1cccnc1Oc1cc(Cl)ccc1Cl)N1CCCc2cc(Cl)ccc21` [Example 71, (6-Chloro-3,4-dihydro-2H-quinolin-1-yl)-[2-(2,5-dichloro-phenoxy)-pyridin-3-yl]-methanone] was tested, and the EC50 was 436 nM.
For `O=C(c1cccnc1Oc1cc(Cl)ccc1Cl)N1CCOc2ccc(F)cc21` [Example 72, [2-(2,5-Dichloro-phenoxy)-pyridin-3-yl]-(6-fluoro-2,3-dihydro-benzo[1,4]oxazin-4-yl)-methanone], the EC50 was 163 nM.
For `O=C(c1cccnc1Oc1cc(Cl)ccc1Cl)N1CCOc2c(F)cc(F)cc21` [Example 73, [2-(2,5-Dichloro-phenoxy)-pyridin-3-yl]-(6,8-difluoro-2,3-dihydro-benzo[1,4]oxazin-4-yl)-methanone], the EC50 was 418 nM.
`O=C(c1cccnc1Oc1cc(Cl)ccc1Cl)N1CCN(c2ccccc2)c2ccccc21` [Example 74, [2-(2,5-Dichloro-phenoxy)-pyridin-3-yl]-(4-phenyl-3,4-dihydro-2H-quinoxalin-1-yl)-methanone] gave an EC50 of 1530 nM.
Compound `COc1ccncc1N(C)C(=O)c1cccnc1Oc1cc(Cl)ccc1Cl` [Example 75, 2-(2,5-Dichloro-phenoxy)-N-(4-methoxy-pyridin-3-yl)-N-methyl-nicotinamide] has an EC50 of 1580 nM.
Compound `O=C(c1cccnc1Oc1ccc(Cl)cc1Cl)N1CCCc2ccccc21` [Example 76, [2-(2,4-Dichloro-phenoxy)-pyridin-3-yl]-(3,4-dihydro-2H-quinolin-1-yl)-methanone] has an EC50 of 1960 nM.
`Cc1ccc2c(c1)CCCN2C(=O)c1cccnc1Oc1ccc(F)c(Cl)c1` [Example 77, [2-(3-Chloro-4-fluoro-phenoxy)-pyridin-3-yl]-(6-methyl-3,4-dihydro-2H-quinolin-1-yl)-methanone] was tested, and the EC50 was 765 nM.
Work on `O=C(c1cccnc1Oc1ccc(F)c(Cl)c1)N1CCCc2ncccc21` [Example 78, [2-(3-Chloro-4-fluoro-phenoxy)-pyridin-3-yl]-(3,4-dihydro-2H-[1,5]naphthyridin-1-yl)-methanone] yielded an EC50 of 128 nM.
Compound `O=C(c1cccnc1Oc1ccc(F)c(Cl)c1)N1CCCc2cc(F)c(F)cc21` [Example 79, [2-(3-Chloro-4-fluoro-phenoxy)-pyridin-3-yl]-(6,7-difluoro-3,4-dihydro-2H-quinolin-1-yl)-methanone] has an EC50 of 127 nM.
For `CC1CCc2ccccc2N1C(=O)c1cc(F)cnc1Oc1cc(Cl)ccc1Cl` (stereo not shown) [Example 80, [2-(2,5-Dichloro-phenoxy)-5-fluoro-pyridin-3-yl]-(2-methyl-3,4-dihydro-2H-quinolin-1-yl)-methanone], the EC50 was 630 nM.
`O=C(c1cc(F)cnc1Oc1cc(Cl)ccc1Cl)N1CCOc2ccccc21` [Example 81, [2-(2,5-Dichloro-phenoxy)-5-fluoro-pyridin-3-yl]-(2,3-dihydro-benzo[1,4]oxazin-4-yl)-methanone] showed an EC50 of 78 nM.

From patent US8309734B2 (Hoffmann-La Roche Inc., priority 2008, dated 2012)
